From patent US10532053B2, “Histone deacetylase inhibitor, and preparation method and use thereof” (GUANGDONG ZHONGSHENG PHARMACEUTICAL CO., LTD, priority 2015, dated 2020) come the findings set out here.

SMILES strings stand for the structures.

T1 sequence (Q13547 whole entry): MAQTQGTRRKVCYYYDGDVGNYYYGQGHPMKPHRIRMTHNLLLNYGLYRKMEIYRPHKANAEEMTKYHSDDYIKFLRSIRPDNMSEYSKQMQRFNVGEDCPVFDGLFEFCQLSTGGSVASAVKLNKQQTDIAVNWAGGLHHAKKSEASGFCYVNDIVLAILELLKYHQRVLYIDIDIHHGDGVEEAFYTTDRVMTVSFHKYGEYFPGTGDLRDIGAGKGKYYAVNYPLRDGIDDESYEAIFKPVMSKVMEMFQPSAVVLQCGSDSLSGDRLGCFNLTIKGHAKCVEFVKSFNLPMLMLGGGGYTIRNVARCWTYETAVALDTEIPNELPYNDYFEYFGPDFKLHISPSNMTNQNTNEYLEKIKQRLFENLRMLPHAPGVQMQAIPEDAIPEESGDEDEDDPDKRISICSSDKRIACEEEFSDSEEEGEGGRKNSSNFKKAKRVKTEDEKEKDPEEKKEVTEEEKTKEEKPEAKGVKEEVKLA

One assay addresses T1, HDAC1 (Homo sapiens, UniProt Q13547).
T1 construct: purchased BPS Bioscience
Kind of assay: HDAC inhibitory activity, fluorescence-coupled acetylated peptide substrate assay (Lys-Ac-AMC). Particulars: Table 2. Type of assay: biochemical.
`CN(c1ccc(OCCCCC(=O)NO)cc1)c1ncnc2ccccc12` [II-14, N-hydroxy-5-(4-(methyl(4-quinazolinyl)amino)phenoxy)pentanamide] came in with an IC50 of 0.1 to 1 µM.

Regarding `CN(c1ccc(OCCCCCC(=O)NO)cc1)c1ncnc2ccccc12` [II-15, N-hydroxy-6-(4-(methyl(4-quinazolinyl)amino)phenoxy)hexanamide], the IC50 fell in the range of 0.1 to 1 µM.

Staying with this assay, now noted: Table 3.
`CN(c1ccc(OCCCCC(=O)NO)cc1)c1ncnc2ccccc12` [II-14, N-hydroxy-5-(4-(methyl(4-quinazolinyl)amino)phenoxy)pentanamide] gave an IC50 of 0.203 µM.

Molecule `CN(c1ccc(OCCCCCC(=O)NO)cc1)c1ncnc2ccccc12` [II-15, N-hydroxy-6-(4-(methyl(4-quinazolinyl)amino)phenoxy)hexanamide] gave an IC50 of 0.176 µM.

The next assay deals with T2, HDAC6 (Homo sapiens, UniProt Q9UBN7).
T2 sequence (Q9UBN7 1-1215): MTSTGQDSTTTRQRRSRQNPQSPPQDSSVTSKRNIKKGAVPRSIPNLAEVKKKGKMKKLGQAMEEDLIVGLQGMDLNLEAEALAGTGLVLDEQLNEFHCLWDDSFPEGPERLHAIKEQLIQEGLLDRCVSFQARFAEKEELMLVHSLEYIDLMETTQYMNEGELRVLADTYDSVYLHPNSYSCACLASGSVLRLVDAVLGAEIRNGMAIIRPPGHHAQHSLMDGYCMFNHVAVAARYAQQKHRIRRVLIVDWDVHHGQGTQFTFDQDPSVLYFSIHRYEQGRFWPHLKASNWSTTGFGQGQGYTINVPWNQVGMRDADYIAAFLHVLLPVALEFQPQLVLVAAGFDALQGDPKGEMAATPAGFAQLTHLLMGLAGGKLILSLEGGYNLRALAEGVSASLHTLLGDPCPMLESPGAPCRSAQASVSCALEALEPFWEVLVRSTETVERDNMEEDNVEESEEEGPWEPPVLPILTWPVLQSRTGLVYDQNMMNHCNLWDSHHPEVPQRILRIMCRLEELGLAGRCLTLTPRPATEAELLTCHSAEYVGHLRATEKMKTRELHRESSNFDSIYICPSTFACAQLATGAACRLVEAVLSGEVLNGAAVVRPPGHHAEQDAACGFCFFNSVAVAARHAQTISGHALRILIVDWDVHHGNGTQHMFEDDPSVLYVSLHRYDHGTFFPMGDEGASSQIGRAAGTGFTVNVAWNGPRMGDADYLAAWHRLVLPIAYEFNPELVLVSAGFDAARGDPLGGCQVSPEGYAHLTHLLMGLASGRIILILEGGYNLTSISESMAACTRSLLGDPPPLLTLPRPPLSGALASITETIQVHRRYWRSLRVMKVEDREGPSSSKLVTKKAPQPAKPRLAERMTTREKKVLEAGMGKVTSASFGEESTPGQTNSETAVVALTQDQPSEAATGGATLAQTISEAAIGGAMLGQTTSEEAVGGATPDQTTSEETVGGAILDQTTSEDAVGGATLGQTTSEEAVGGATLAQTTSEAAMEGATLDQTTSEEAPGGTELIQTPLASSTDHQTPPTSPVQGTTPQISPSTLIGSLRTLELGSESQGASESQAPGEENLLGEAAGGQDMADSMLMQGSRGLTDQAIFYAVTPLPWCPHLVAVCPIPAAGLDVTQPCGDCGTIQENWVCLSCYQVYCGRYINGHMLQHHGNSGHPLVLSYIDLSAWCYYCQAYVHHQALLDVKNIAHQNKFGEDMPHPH
Description: HDAC inhibitory activity, fluorescence-coupled acetylated peptide substrate assay. Type of assay: biochemical. The settings on record: Table 2.
The molecule `Cc1nc(N(C)c2ccc(OCc3ccc(C(=O)NO)cc3)cc2)c2ccccc2n1` [II-5, N-hydroxy-4-((4-(methyl(2-methyl-4-quinazolinyl)amino)phenoxy)methyl)benzamide] returned an IC50 of less than 0.01 µM.

As for `CN(c1ccc(OCCCCC(=O)NO)cc1)c1ncnc2ccccc12` [II-14, N-hydroxy-5-(4-(methyl(4-quinazolinyl)amino)phenoxy)pentanamide], the IC50 lay in the range of 0.01 to 0.1 µM.

`CN(c1ccc(OCCCCCC(=O)NO)cc1)c1ncnc2ccccc12` [II-15, N-hydroxy-6-(4-(methyl(4-quinazolinyl)amino)phenoxy)hexanamide] showed an IC50 of 0.01 to 0.1 µM.

The same assay, now with this note: Table 3.
In turn, `Cc1nc(N(C)c2ccc(OCc3ccc(C(=O)NO)cc3)cc2)c2ccccc2n1` [II-5, N-hydroxy-4-((4-(methyl(2-methyl-4-quinazolinyl)amino)phenoxy)methyl)benzamide] came in with an IC50 of 0.0064 µM.

For `CN(c1ccc(OCCCCC(=O)NO)cc1)c1ncnc2ccccc12` [II-14, N-hydroxy-5-(4-(methyl(4-quinazolinyl)amino)phenoxy)pentanamide], the IC50 stood at 0.049 µM.

In the case of `CN(c1ccc(OCCCCCC(=O)NO)cc1)c1ncnc2ccccc12` [II-15, N-hydroxy-6-(4-(methyl(4-quinazolinyl)amino)phenoxy)hexanamide], the IC50 came to 0.019 µM.

The same assay, now with this note: ratio of IC50 HDAC1 to HDAC6.
Turning to `Cc1nc(N(C)c2ccc(OCc3ccc(C(=O)NO)cc3)cc2)c2ccccc2n1` [II-5, N-hydroxy-4-((4-(methyl(2-methyl-4-quinazolinyl)amino)phenoxy)methyl)benzamide], the “Selection Ratio HDAC1/6” value is 6.9.

Take `CN(c1ccc(OCCCCC(=O)NO)cc1)c1ncnc2ccccc12` [II-14, N-hydroxy-5-(4-(methyl(4-quinazolinyl)amino)phenoxy)pentanamide]: the “Selection Ratio HDAC1/6” value is 4.1.

In the case of `CN(c1ccc(OCCCCCC(=O)NO)cc1)c1ncnc2ccccc12` [II-15, N-hydroxy-6-(4-(methyl(4-quinazolinyl)amino)phenoxy)hexanamide], the “Selection Ratio HDAC1/6” value was 9.3.

The assay is the same for the next values; noted with them: ratio of IC50 HDAC8 to HDAC6.
As to `Cc1nc(N(C)c2ccc(OCc3ccc(C(=O)NO)cc3)cc2)c2ccccc2n1` [II-5, N-hydroxy-4-((4-(methyl(2-methyl-4-quinazolinyl)amino)phenoxy)methyl)benzamide], the “Selection Ratio HDAC8/6” value turned out to be 371.3.

As to `CN(c1ccc(OCCCCC(=O)NO)cc1)c1ncnc2ccccc12` [II-14, N-hydroxy-5-(4-(methyl(4-quinazolinyl)amino)phenoxy)pentanamide], the “Selection Ratio HDAC8/6” value is 27.1.

Consider `CN(c1ccc(OCCCCCC(=O)NO)cc1)c1ncnc2ccccc12` [II-15, N-hydroxy-6-(4-(methyl(4-quinazolinyl)amino)phenoxy)hexanamide], for which the “Selection Ratio HDAC8/6” value amounted to 55.7.

The next assay has as its system Human cervical cancer cell Hela. Kind of assay: Cell proliferative activity (MTT / cck-8). The format is cell-based. Particulars: incubated for 96 hours, read-out: Half-Inhibitory Concentration IC50 Human cervical cancer cell Hela. How it is done:
(§1) Tumor cell line A375: human melanoma cell; H460: lung adenocarcinoma cell; Hela: human cervical cancer cell; HepG2: human liver cancer cell; and SKOV-3: human ovarian cancer cell, were all purchased from ATCC and cultured to logarithmic phase according to the cultivation protocol recommended by ATCC. The cells in the logarithmic phase were plated onto a 96-well plate at 2000-3000 cells/well; in the case of adherent cells, the cells should be adherent to the wall. […] After that, the cell proliferative activity was determined by MTT assay for the tumor cells representing the solid tumor model and by cck-8 assay for the tumor cells representing the hematologic tumor model.
Take `Cc1nc(N(C)c2ccc(OCc3ccc(C(=O)NO)cc3)cc2)c2ccccc2n1` [II-5, N-hydroxy-4-((4-(methyl(2-methyl-4-quinazolinyl)amino)phenoxy)methyl)benzamide]: the IC50 was greater than 1 µM.

In the case of `CN(c1ccc(OCCCCC(=O)NO)cc1)c1ncnc2ccccc12` [II-14, N-hydroxy-5-(4-(methyl(4-quinazolinyl)amino)phenoxy)pentanamide], the IC50 was greater than 1 µM.

Regarding `CN(c1ccc(OCCCCCC(=O)NO)cc1)c1ncnc2ccccc12` [II-15, N-hydroxy-6-(4-(methyl(4-quinazolinyl)amino)phenoxy)hexanamide], the IC50 was greater than 1 µM.

In a further assay the test system is Human liver cancer cell HepG2. Kind of assay: Cell proliferative activity (MTT / cck-8). Type of assay: cell-based. The settings on record: incubated for 96 hours, read-out: Half-Inhibitory Concentration IC50 Human liver cancer cell HepG2. How it is done:
as §1
Turning to `Cc1nc(N(C)c2ccc(OCc3ccc(C(=O)NO)cc3)cc2)c2ccccc2n1` [II-5, N-hydroxy-4-((4-(methyl(2-methyl-4-quinazolinyl)amino)phenoxy)methyl)benzamide], the IC50 was greater than 1 µM.

As to `CN(c1ccc(OCCCCC(=O)NO)cc1)c1ncnc2ccccc12` [II-14, N-hydroxy-5-(4-(methyl(4-quinazolinyl)amino)phenoxy)pentanamide], the IC50 is greater than 1 µM.

For the molecule `CN(c1ccc(OCCCCCC(=O)NO)cc1)c1ncnc2ccccc12` [II-15, N-hydroxy-6-(4-(methyl(4-quinazolinyl)amino)phenoxy)hexanamide], the IC50 is greater than 1 µM.

A further assay has as its system Human lung cancer cell H460. Kind of assay: Cell proliferative activity (MTT / cck-8). Type of assay: cell-based. Particulars: NCI-H460, incubated for 96 hours, read-out: Half-Inhibitory Concentration IC50 Human lung cancer cell H460. On the procedure: as §1
For the molecule `Cc1nc(N(C)c2ccc(OCc3ccc(C(=O)NO)cc3)cc2)c2ccccc2n1` [II-5, N-hydroxy-4-((4-(methyl(2-methyl-4-quinazolinyl)amino)phenoxy)methyl)benzamide], the IC50 was greater than 1 µM.

With `CN(c1ccc(OCCCCC(=O)NO)cc1)c1ncnc2ccccc12` [II-14, N-hydroxy-5-(4-(methyl(4-quinazolinyl)amino)phenoxy)pentanamide], the IC50 is greater than 1 µM.

In the case of `CN(c1ccc(OCCCCCC(=O)NO)cc1)c1ncnc2ccccc12` [II-15, N-hydroxy-6-(4-(methyl(4-quinazolinyl)amino)phenoxy)hexanamide], the IC50 is greater than 1 µM.

The subject of the next assay is Human melanoma A375. Description: Cell proliferative activity (MTT / cck-8). The settings on record: A-375, incubated for 96 hours, read-out: Half-Inhibitory Concentration IC50 Human melanoma A375. Type of assay: cell-based. On the procedure:
as §1
For the molecule `Cc1nc(N(C)c2ccc(OCc3ccc(C(=O)NO)cc3)cc2)c2ccccc2n1` [II-5, N-hydroxy-4-((4-(methyl(2-methyl-4-quinazolinyl)amino)phenoxy)methyl)benzamide], the IC50 was greater than 1 µM.

With `CN(c1ccc(OCCCCC(=O)NO)cc1)c1ncnc2ccccc12` [II-14, N-hydroxy-5-(4-(methyl(4-quinazolinyl)amino)phenoxy)pentanamide], the IC50 is greater than 1 µM.

`CN(c1ccc(OCCCCCC(=O)NO)cc1)c1ncnc2ccccc12` [II-15, N-hydroxy-6-(4-(methyl(4-quinazolinyl)amino)phenoxy)hexanamide]: the IC50 was in the range of 0.1 to 1 µM.

In another assay the test system is Human ovarian cancer cell SKOV-3. Kind of assay: Cell proliferative activity (MTT / cck-8). Particulars: SK-OV-3, incubated for 96 hours, read-out: Half-Inhibitory Concentration IC50 Human ovarian cancer cell SKOV-3. Type of assay: cell-based. How it is done:
as §1
On to `Cc1nc(N(C)c2ccc(OCc3ccc(C(=O)NO)cc3)cc2)c2ccccc2n1` [II-5, N-hydroxy-4-((4-(methyl(2-methyl-4-quinazolinyl)amino)phenoxy)methyl)benzamide], for which the IC50 is greater than 1 µM.

In the case of `CN(c1ccc(OCCCCC(=O)NO)cc1)c1ncnc2ccccc12` [II-14, N-hydroxy-5-(4-(methyl(4-quinazolinyl)amino)phenoxy)pentanamide], the IC50 is greater than 1 µM.

For the molecule `CN(c1ccc(OCCCCCC(=O)NO)cc1)c1ncnc2ccccc12` [II-15, N-hydroxy-6-(4-(methyl(4-quinazolinyl)amino)phenoxy)hexanamide], the IC50 was greater than 1 µM.

A further assay addresses T3, HDAC8 (Homo sapiens, UniProt Q9BY41).
T3 sequence (Q9BY41 1-377): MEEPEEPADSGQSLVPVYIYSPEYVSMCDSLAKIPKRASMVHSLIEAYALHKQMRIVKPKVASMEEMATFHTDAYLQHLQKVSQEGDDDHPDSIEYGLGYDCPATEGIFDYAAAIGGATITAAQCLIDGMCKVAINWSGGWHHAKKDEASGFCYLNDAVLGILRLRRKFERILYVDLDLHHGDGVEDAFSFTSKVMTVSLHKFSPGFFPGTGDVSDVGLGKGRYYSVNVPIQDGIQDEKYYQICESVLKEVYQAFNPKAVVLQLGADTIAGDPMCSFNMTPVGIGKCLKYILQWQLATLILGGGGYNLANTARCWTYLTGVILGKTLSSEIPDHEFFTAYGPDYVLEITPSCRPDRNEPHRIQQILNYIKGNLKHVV
Kind of assay: HDAC inhibitory activity, fluorescence-coupled acetylated peptide substrate assay. The settings on record: IC50 HDAC8, Table 2.
On to `Cc1nc(N(C)c2ccc(OCc3ccc(C(=O)NO)cc3)cc2)c2ccccc2n1` [II-5, N-hydroxy-4-((4-(methyl(2-methyl-4-quinazolinyl)amino)phenoxy)methyl)benzamide], for which the IC50 is greater than 1 µM.

The molecule `CN(c1ccc(OCCCCC(=O)NO)cc1)c1ncnc2ccccc12` [II-14, N-hydroxy-5-(4-(methyl(4-quinazolinyl)amino)phenoxy)pentanamide] showed an IC50 greater than 1 µM.

`CN(c1ccc(OCCCCCC(=O)NO)cc1)c1ncnc2ccccc12` [II-15, N-hydroxy-6-(4-(methyl(4-quinazolinyl)amino)phenoxy)hexanamide]: the IC50 is greater than 1 µM.

Still in this assay, the particulars now being: IC50 HDAC8, Table 3.
As to `Cc1nc(N(C)c2ccc(OCc3ccc(C(=O)NO)cc3)cc2)c2ccccc2n1` [II-5, N-hydroxy-4-((4-(methyl(2-methyl-4-quinazolinyl)amino)phenoxy)methyl)benzamide], the IC50 was 2.38 µM.

Staying with this assay, now noted: read-out: IC50 HDAC8; Table 3.
With `CN(c1ccc(OCCCCC(=O)NO)cc1)c1ncnc2ccccc12` [II-14, N-hydroxy-5-(4-(methyl(4-quinazolinyl)amino)phenoxy)pentanamide], the IC50 was 1.33 µM.

On to `CN(c1ccc(OCCCCCC(=O)NO)cc1)c1ncnc2ccccc12` [II-15, N-hydroxy-6-(4-(methyl(4-quinazolinyl)amino)phenoxy)hexanamide], for which the IC50 was found to be 1.06 µM.
